Test results reported in US4489091A, “Antilipemic and anti-inflammatory compositions containing sulfonate derivatives” (Taiho Pharmaceutical Company Limited, priority 1980, dated 1984).
Read-outs that look alike come from different tables or passages of the source.

What was measured:
[1] = target: esterase; test: Esterase inhibiting activity; type: biochemical; settings: rat liver microsome esterase, methyl butyrate substrate, pH 8.0, 37° C., 60 minutes; read-out: IC50 for esterases
Protocol: A 10 micromole quantity of methyl butyrate in a 50% ethanol solution is added as a substrate to a specified amount of buffer solution containing 0.1 mole of trishydrochloric acid (pH 8.0). To the mixture is further added a 50% ethanol solution of the compound of the invention, immediately followed by addition of an esterase solution prepared from a purified microsome fraction of the liver of a rat (adjusted to hydrolyze 9 micromoles of methyl butyrate at 37° C. in one hour) as an enzyme solution. The mixture is reacted at 37° C. for 60 minutes.
After the reaction, alkaline hydroxylamine is added to the mixture to form a hydroxamic acid derivative of methyl butyrate, and a ferric salt is added to the derivative. The resulting red color is colorimetrically determined (at a wavelength of 540 nm) to determine the amount of remaining methyl butyrate. The esterase inhibiting ratios of the present compound at least at three concentrations are plotted as ordinate, and the logarithms of the concentrations as abscissa to obtain a line, which gives the 50% inhibition concentration (IC50).

[2] = system: cholesterol; test: Antilipemic effect: percent total cholesterol inhibition in plasma of rats given an olive oil-cholesterol mixture; type: in vivo, male Wistar rats; settings: plasma 8 hours after dosing, Wistar rat; for inhibition in vivo at 100 mg/kg: oral 100 mg/kg, read-out: Anti-lipemic effect, CS (percent cholesterol inhibition); for Anti-lipemic effect, CS (percent cholesterol inhibition), asterisked: oral 200 mg/kg (asterisked values)
How it was run: (§1)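 Male Wistar rats, seven weeks old, 200 to 220 g, 5 per group, dosed orally at 100 or 200 mg/kg in olive oil-cholesterol mixture (15% cholesterol) at 10 ml/kg. Plasma triglycerides measured at 2 hours, total cholesterol at 8 hours, by enzymatic kits; percent inhibition calculated relative to vehicle control and untreated normal groups.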

[3] = Acute toxicity; settings: rat, in vivo
Excerpt: Six-week-old male Wistar rats weighing 180 to 200 g are used, 5 rats in each group. Each compound of the invention is suspended in a 30% aqueous solution of polyethylene glycol 6000 and orally given to the rat at the dosage shown in Table 2. The animals are checked for poisoning, body weight and survival to determine the LD50 value.

[4] = system: triglycerides; test: Antilipemic effect: percent triglycerides inhibition in plasma of rats given an olive oil-cholesterol mixture; type: in vivo, male Wistar rats; settings: plasma 2 hours after dosing, Wistar rat; for inhibition in vivo at 100 mg/kg: oral 100 mg/kg, read-out: Anti-lipemic effect, TG (percent triglycerides inhibition); for inhibition in vivo at 200 mg/kg: oral 200 mg/kg (asterisked values), read-out: Anti-lipemic effect, TG (percent triglycerides inhibition), asterisked
How it was run: as §1

[5] = target: chymotripsin (Bos taurus, UniProt P00766); test: Chymotripsin inhibiting activity; type: biochemical; settings: 0.5 h; compound 1×10^-4 mole, ATEE substrate, pH 8.0, 37° C.; read-out: Percent chymotripsin inhibition
Protocol: Chymotripsin (0.1 unit) serving as an enzyme solution is added to a specified quantity of buffer solution containing 0.1 mole of trishydrochloric acid (pH 8.0). To the mixture is further added a 50% ethanol solution of the compound of the invention so that the resulting mixture contains the compound in a concentration of 1×10^-4 mole. The mixture is reacted at 37° C. for 20 minutes.
On completion of the reaction, 10 micromoles of N-acetyl-L-thyrosine ethyl ester (ATEE) serving as a substrate is added to the mixture, and the resulting mixture is reacted at 37° C. for 30 minutes.
After the completion of the reaction, the amount of remaining ATEE is determined by the same hydroxamic acid method as above. The percent chymotripsin inhibition is given by [formula] wherein A is the amount of hydrolyzed esters in the reaction system not containing the compound of the invention, and B is the amount of hydrolyzed esters in the reaction system containing the present compound.

| SMILES | IC50 [1] [µM] | inhibition in vivo at 100 mg/kg [2] [%] | LD50 ([3]; po) [mg/kg] | inhibition in vivo at 100 mg/kg [4] [%] | inhibition at 100 µM [5] [%] | inhibition in vivo at 200 mg/kg [4] [%] | Anti-lipemic effect, CS (percent cholesterol inhibition), asterisked [2] [%] | LD50 ([3]; oral, six-week-old male Wistar rats, suspended in 30% aqueous polyethylene glycol 6000, read-out: LD50) [mg/kg] |
| --- | --- | --- | --- | --- | --- | --- | --- | --- |
| C=CCCC(=O)COS(=O)(=O)c1ccccc1 [Compound 14] | 0.52 | 62 | > 2000 | 92 | 25 | – | – | – |
| CCCCCC(=O)COS(=O)(=O)c1ccc(C)cc1 [Compound 18] | 1.6 | 40 | > 3000 | 94 | 77 | – | – | – |
| CCCCCCC(=O)COS(=O)(=O)c1ccc(C)cc1 [Compound 19] | 3.4 | 41 | > 3000 | 78 | 100 | – | – | – |
| CCCCCCC(=O)COS(=O)(=O)c1ccccc1C [Compound 31] | 0.017 | 31 | > 2000 | 61 | 100 | – | – | – |
| CCCCC(CC)C(=O)COS(=O)(=O)c1ccccc1C (stereo not shown) [Compound 32] | 0.35 | 43 | > 3000 | 70 | 0.4 | – | – | – |
| CCCCCCCC(=O)COS(=O)(=O)c1ccc(OC)cc1 [Compound 37] | 0.15 | 62 | > 3000 | 62 | 91 | – | – | – |
| CCCCCCCC(=O)COS(=O)(=O)c1ccc(OCC)cc1 [Compound 47] | 0.59 | 60 | > 4000 | – | 67 | 82 | – | – |
| CCCCC(CC)C(=O)COS(=O)(=O)c1ccc(OCC)cc1 (stereo not shown) [Compound 50] | 21 | 94 | > 4500 | 80 | 31 | – | – | – |
| CCCCCCCC(=O)COS(=O)(=O)c1ccc(OCCCC)cc1 [Compound 56] | 1 | – | > 3000 | – | 50 | 64 | 42 | – |
| CCCC(=O)COS(=O)(=O)c1c(C)cc(C)cc1C [Compound 73, 2-oxopentyl-2,4,6-trimethylbenzenesulfonate] | 1 | 90 | – | 92 | 13 | – | – | > 3000 |
| CCCCCCCCC(=O)COS(=O)(=O)c1c(C)cc(C)cc1C [Compound 78] | 0.00063 | 61 | > 4000 | 56 | 72 | – | – | – |
| C=CCCC(=O)COS(=O)(=O)c1c(C)cc(C)cc1C [Compound 86] | 0.12 | 66 | > 3000 | 79 | 14 | – | – | – |
| CCCCC(=O)COS(=O)(=O)c1c(C)cc(C)c(C)c1C [Compound 96] | 0.00016 | 71 | > 3000 | 68 | 12 | – | – | – |
| CCCCCCCCC(=O)COS(=O)(=O)c1c(C)cc(C)c(C)c1C [Compound 98] | 2.7e-05 | – | > 4000 | – | 26 | 70 | 71 | – |
| CCCC(=O)COS(=O)(=O)c1cc(C)ccc1C [Compound 111] | 0.28 | 51 | > 2000 | 73 | 4 | – | – | – |
| CCCC(=O)COS(=O)(=O)c1cc(C)c(C)cc1C [Compound 116] | 1.3 | 82 | > 2000 | 90 | 0 | – | – | – |
| CCCCC(CCCC)C(=O)COS(=O)(=O)c1ccc(C)cc1 [Compound 129] | 7 | 45 | > 3000 | 66 | 30 | – | – | – |
| CCCCCC(C)C(=O)COS(=O)(=O)c1ccc(C)cc1 (stereo not shown) [Compound 130] | 4 | 51 | > 3000 | 72 | 52 | – | – | – |
| CCCC(CC)C(=O)COS(=O)(=O)c1ccc(OCC)cc1 (stereo not shown) [Compound 134] | 560 | 65 | > 4500 | 82 | 2 | – | – | – |
| CCCC(CCC)C(=O)COS(=O)(=O)c1ccc(OCC)cc1 [Compound 135] | 56 | 92 | > 4500 | 91 | 10 | – | – | – |
| CCOc1ccc(S(=O)(=O)OCC(=O)CC(CC)CC)cc1 [Compound 137] | 10 | 72 | > 4000 | 81 | 14 | – | – | – |
| CCOc1ccc(S(=O)(=O)OCC(=O)CCC(C)C)cc1 [Compound 138] | 4.2 | 90 | > 2000 | 95 | 67 | – | – | – |
| CCOc1ccc(S(=O)(=O)OCC(=O)CCCC(C)C)cc1 [Compound 145] | 3.3 | 62 | > 3000 | 61 | 87 | – | – | – |
| Cc1cc(C)c(S(=O)(=O)OCC(=O)CC(C)C)c(C)c1 [Compound 149] | 1 | 67 | > 3000 | 81 | 7 | – | – | – |
| CCCC(CC)C(=O)COS(=O)(=O)c1c(C)cc(C)cc1C (stereo not shown) [Compound 151] | 32 | 77 | > 3000 | 83 | 8 | – | – | – |
| CCC(C)CC(=O)COS(=O)(=O)c1c(C)cc(C)cc1C (stereo not shown) [Compound 153] | 0.64 | 83 | > 4000 | 82 | 9 | – | – | – |
